{"source": "patent US6410485B1", "about": "“Saccharin-5-carbonyl derivatives with herbicidal effect” (BASF Aktiengesellschaft, priority 1999, dated 2002)", "assay_type_in_all_cases": "in vivo", "key": {"Glycine max (GLXMA)": {"test_system": "Glycine max (GLXMA)", "assay": "greenhouse test, preemergence treatment, soybean", "conditions": "100 = no emergence or complete destruction, 0 = no damage", "excerpt": "(§1) It was possible to show the herbicidal action of the saccharin-5-carbonyl derivatives of the formula I by means of greenhouse tests: The cultivation containers used were plastic pots containing loamy sand with approximately 3.0% humus as a substrate. The seeds of the test plants were sown separately according to species. In the case of preemergence treatment, the active compounds suspended or emulsified in water were applied directly after sowing by means of finely dispersing nozzles. The containers were lightly watered in order to promote germination and growth, and then covered with transparent plastic hoods until the plants had taken root. This covering causes uniform germination of the test plants if this is not adversely affected by the active compounds. The application rate for preemergence treatment was 0.125 or 0.0625 kg/ha of a.s. The plants were kept species-specifically at temperatures of 10-25° C. or 20-35° C. The test period extended over 2 to 4 weeks. During this time, the plants were tended, and their reaction to the individual treatments was assessed. Assessment was carried out on a scale from 0 to 100. In this case, 100 means no emergence of the plants or complete destruction at least of the above-ground parts and 0 means no damage or a normal course of growth. The plants used in the greenhouse tests were made up of the following species: [table]"}, "[1]": {"test_system": "Chenopodium album (CHEAL)", "assay": "greenhouse test, preemergence treatment, lambsquarter", "conditions": "100 = no emergence or complete destruction, 0 = no damage", "excerpt": "as §1"}, "[2]": {"test_system": "digitaria sanguinalis (DIGSA)", "assay": "greenhouse test, preemergence treatment, large crabgrass", "conditions": "100 = no emergence or complete destruction, 0 = no damage", "excerpt": "as §1"}, "[3]": {"test_system": "Echinochloa crus galli (ECHCG)", "assay": "greenhouse test, preemergence treatment, common barnyard grass", "conditions": "100 = no emergence or complete destruction, 0 = no damage", "excerpt": "as §1"}, "Setaria viridis (SETVI)": {"test_system": "Setaria viridis (SETVI)", "assay": "greenhouse test, preemergence treatment, green foxtail", "conditions": "100 = no emergence or complete destruction, 0 = no damage", "excerpt": "as §1"}, "[4]": {"test_system": "weed grasses and broad-leaved plants", "assay": "greenhouse test, preemergence treatment, overall statement", "conditions": "0.125 and 0.0625 kg/ha a.s.", "excerpt": "as §1, with “[table]” left out"}}}
{"smiles": "Cc1c(C(=O)C2=C(O)C3CCC(C3)C2=O)ccc2c1C(=O)N(C)S2(=O)=O", "note": "(centres unmarked) [Compound 1.1]", "values": [{"measurement": "damage assessment on a scale from 0 to 100 (GLXMA)", "setting": "Glycine max (GLXMA); 0.0625 kg/ha of a.s.", "result": 0}, {"measurement": "damage assessment on a scale from 0 to 100 (GLXMA)", "setting": "Glycine max (GLXMA); 0.125 kg/ha of a.s.", "result": 0}, {"measurement": "damage assessment on a scale from 0 to 100 (CHEAL)", "setting": "[1]; 0.0625 kg/ha of a.s.", "result": 98}, {"measurement": "damage assessment on a scale from 0 to 100 (CHEAL)", "setting": "[1]; 0.125 kg/ha of a.s.", "result": 98}, {"measurement": "damage assessment on a scale from 0 to 100 (DIGSA)", "setting": "[2]; 0.0625 kg/ha of a.s.", "result": 98}, {"measurement": "damage assessment on a scale from 0 to 100 (DIGSA)", "setting": "[2]; 0.125 kg/ha of a.s.", "result": 98}, {"measurement": "damage assessment on a scale from 0 to 100 (ECHCG)", "setting": "[3]; 0.0625 kg/ha of a.s.", "result": 98}, {"measurement": "damage assessment on a scale from 0 to 100 (ECHCG)", "setting": "[3]; 0.125 kg/ha of a.s.", "result": 98}, {"measurement": "damage assessment on a scale from 0 to 100 (SETVI)", "setting": "Setaria viridis (SETVI); 0.0625 kg/ha of a.s.", "result": 98}, {"measurement": "damage assessment on a scale from 0 to 100 (SETVI)", "setting": "Setaria viridis (SETVI); 0.125 kg/ha of a.s.", "result": 100}, {"measurement": "control of weed grasses and broad-leaved plants", "setting": "[4]", "result": "very well controlled"}]}
